BindingDB's records for doi:10.1074/jbc.M203194200 (Tanabe Seiyaku, 2002)

Target: Oxoeicosanoid receptor 1 (Homo sapiens, UniProt Q8TDS5)
Sequence (Q8TDS5 as listed by the source): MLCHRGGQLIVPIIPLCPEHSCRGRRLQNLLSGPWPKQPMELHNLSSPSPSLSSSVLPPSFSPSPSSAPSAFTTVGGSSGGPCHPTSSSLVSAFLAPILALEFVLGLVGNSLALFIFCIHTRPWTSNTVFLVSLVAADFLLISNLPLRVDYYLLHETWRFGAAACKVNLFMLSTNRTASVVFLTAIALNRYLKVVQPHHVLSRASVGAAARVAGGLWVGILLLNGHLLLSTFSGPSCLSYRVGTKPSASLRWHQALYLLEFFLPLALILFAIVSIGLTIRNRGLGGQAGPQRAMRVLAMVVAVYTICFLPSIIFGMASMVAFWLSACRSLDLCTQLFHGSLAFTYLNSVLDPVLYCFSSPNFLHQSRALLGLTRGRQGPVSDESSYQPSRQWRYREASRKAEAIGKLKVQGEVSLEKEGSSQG

SMILES	Ki [µM]
CCCCC/C=C\C/C=C\C/C=C\CCCCCCC(=O)O [(Z,Z,Z)-8,11,14-Eicosatrienoic acid]	3.7
CC/C=C\C/C=C\C/C=C\C/C=C\C/C=C\C/C=C\CCC(=O)O [all-cis-docosa-4,7,10,13,16,19-hexaenoic acid]	1.6
CC/C=C\C/C=C\C/C=C\C/C=C\C/C=C\CCCC(=O)O [5,8,11,14,17-EICOSAPENTAENOIC ACID]	6
